Test results from publication PMC12169104, “Towards the development of supramolecular self-associating amphiphiles as antibiofilm agents against Pseudomonas aeruginosa and Candida albicans biofilms” (Journal of Materials Chemistry. B, 2025).
“And” between values parts separate entries of the source, which are not always exact repeats. Equal entries are not always repeated. Marks after values point to notes of the source that are not given here.

Assays:
[1] = 1H NMR dilution study, dimerization constant (EK model, Bindfit v0.5); type: physicochemical; conditions: DMSO-d6/0.5% H2O, SSA anion dimerization
From the text: (§1) The self-associative properties of SSAs 1–5, and co-formulations a–j, were studied using previously published methodologies, the results of which are summarised in Table 1.[44,45] Initially, we quantified the strength of homogeneous SSA anion self-association events, to confirm the effect of the squaramide – (thio)urea substitution. […] Complimentary ^1H NMR DOSY experiments conducted in DMSO-d6 0.5% H2O solutions at 298 K confirmed the SSA anion and cation components to diffuse at different rates, providing supporting evidence towards the lack of any strong ion pairing interactions between the SSA anionic and cationic components under these experimental conditions. […] The formation of SSA anionic dimers has also been shown in the solid state through single crystal X-ray diffraction experiments.[42,43,46] […] Here the SSA anion dimer is stabilised through the formation of four intermolecular squaramide-anion hydrogen bonds. Proton NMR spectroscopy dilution study data, obtained from a DMSO-d6 0.5% H2O solution, were then fitted to both the EK (the equal K single component linear self-associative or dimerization model) and CoEK (the cooperative equal K single component linear self-associative or dimerization model) self-association models using Bindfit v0.5.[47,48] […] The dimerization constants calculated confirm that substitution of the sulfonate ion (1 and 3) for the carboxylate ion (2) increase Kdim by approximately 50-fold. However, substituting the thiourea (2) for the squaramide (5) functionality increases the Kdim by a further 70-fold. Therefore, confirming our initial hypothesis, that incorporating the squaramide residue within the SSA anion structure would increase the strength of SSA anion self-association events.

[2] = Membrane permeability and adhesion assay (1H CPMG NMR; PF and MAF); conditions: SSA anion(s), 200 μM, 298 K; for MAF (membrane adhesion factor): error ±0.05 unless stated, MAF < 1 suggests adhesion; for PF (membrane permeation factor): error ±0.1 unless stated, PF > 1 suggests permeable
From the text: Finally, in line with our previous work, we moved to characterise the membrane adhesion and permeation events of 1–5 and co-formulations a–j with PE : PG 1 : 1 synthetic phospholipid vesicles.[53] This vesicle composition was prioritised for further analysis as this composition acts as a model for an AMR resistant strain of the ESKAPE pathogen P. aeruginosa,[54,55] categorised as high priority by the WHO.[33] As summarised in Table 4, membrane permeation (PF) and membrane adhesion factors (MAF) for the SSA anionic components were calculated through the use of ^1H CPMG NMR spectroscopy experiments, using vesicles produced by extrusion through a 1000 nm polycarbonate membrane.
Here the lower the MAF, the stronger the adhesion of the molecule to the surface of the phospholipid membrane. […] A PF value of 1 or above provides evidence of SSA permeation. The greater this value above 1, the greater the membrane permeation potential of a compound. […]
Membrane permeability and adhesion assay, determining membrane adhesion factors (MAF) and permeation factors (PF): Lipid vesicles of DOPE and PG, in a 1:1 ratio by weight were prepared as described in ‘preparation of vesicles’ with one alteration. Here vesicles were extruded 21 times through a 1000 nm polycarbonate membrane. NMR samples were prepared containing: SSA ( 200 µM), 95% HEPES buffer (HEPES (10 mM), NaCl (10 mM)) and 5% D 2O, and sodium trimethylsilylpropanesulfonate - DSS (1 µM). In order to calculate the PF and MAF the paramagnetic relaxation enhancement agent (PRE), gadodiamide (1 mM) was added to the NMR mixture. Where lipid vesicles were present in the NMR mixture, vesi cles were added at a concentration of 0.1 mg/mL.
All 1H CPMG NMR spectra were collected with a spin -lock time of 150 mS on a Bruker Avance III spectrometer equipped with a cold probe at a proton frequency of 600 MHz and recorded at 298 K.
Peak intensities were measured using MestReNova (Mestrelab Research). The MAF and PF were determined using previously published method. 3 For individual SSAs, MAF and PF were calculated using all aromatic CH resonances. For SSA co -formulations an average MAF and PF were calculated using all aromatic CH resonances. For individual components of the SSA co -formulations, the resonances for the different SSA anions were treated independently of one another.

[3] = Membrane fluidity fluorescence polarization (DPH) assay; conditions: SSA 1.5 mM, HEPES buffer pH 7.4, 298 K, n = 3, error = SD
From the text: Next, we sought to understand the effects of 1, 2, 4 and 5 and a, c, d, f, g, j on synthetic vesicle phospholipid membrane fluidity using a fluorescence polarization (FP) assay.[52] Here, the fluorescent reporter dye 1,6-diphenyl-1,3,5-hexatriene (DPH) is incorporated into the vesicles phospholipid bilayer. As membrane fluidity is increased, the DPH reporter dye moves more freely within the phospholipid bilayer environment, resulting in a decreased FP value. However, should the membrane become more rigid, the movement of the dye is decreased and the FP value increases. As 3 is intrinsically fluorescent and overlaps with the fluorescence excitation/emission properties of the DPH, this SSA and co-formulations incorporating this compound were not included. […]
Preparation of vesicles: All lipids were purchased as powder stocks from Avanti Polar Lipids. Lipid vesicles were prepared according to standard procedures. Each phospholipid (~ 20 mg) was dissolved in chloroform: methanol 3:1 (~ 10 mL) and the solvent was removed under reduced pressure. The thin film of dried lipid was further dried in vacuo overnight. Lipid films were resuspended in the desired buffer and subjected to 10 freeze-thaw cycles in liquid nitrogen and extruded 19 times through a 200 nm polycarbonate membrane. […]
Preparation of DPH fluorescent labelled vesicles: Lipid films were resuspended in buffer (150 mM KCl, 10 mM HEPES, pH 7.4, 2 mM EGTA) and subjected to 10 freeze-thaw cycles in liquid nitrogen and extruded 20 times through a 200 nm polycarbonate membrane. For fluorescent labelling, the desired vesicles were pre-incubated with DPH (10 µM) at 60 °C for 1 hour.
Membrane fluidity assay: Black bottom 96-well plates were prepared by serially diluting desired SSA in a EtOH: H2O 1:19 solution across the plate, the appropriate DPH labelled vesicles (100 µL, 60 µM) were added to each well to give a total well volume of 200 µL. FP measurements were taken at 25 °C using a 355 nm filter for excitation and a […] for emission. The DPH labelled vesicles were set to a FP value of 100 mP. Data were acquired in endpoint mode. All experiments were repeated in triplicate to ensure experimental reproducibility.

[4] = Tensiometry: critical aggregation concentration and surface tension; type: physicochemical; conditions: H2O:EtOH 19:1, approx. 291 K; for CAC (mM) / CAC: surface tension measurements, bounds represent the limit of solubility; for Surface tension at limit of solubility: footnote c, CAC not reached
[5] = 1H NMR DOSY, hydrodynamic diameter of SSA anion; type: physicochemical; conditions: DMSO-d6/0.5 % H2O, 298 K
From the text: as §1

[6] = Quantitative 1H NMR spectroscopy (higher order self-association); type: physicochemical; conditions: D2O:EtOH 19:1, 2.78 mM, 298 K; proportion of compound to become NMR silent
[7] = PE:PG 1:1 vesicles with DPH (10 μM)
[8] = PE:PG 3:1 vesicles with DPH (10 μM)

Row | Structure (SMILES) | Kdim [1] | CAC (mM) [4] | Surface tension at limit of solubility [4] | dH (nm) of SSA anion, 1H NMR DOSY [5] [nm] | Quantitative 1H NMR (%) Anion [6] [%] | Quantitative 1H NMR (%) Cation [6] [%] | CAC [4] [mM] | MAF (membrane adhesion factor) [2] | PF (membrane permeation factor) [2] | Average FP values [3, 7] | Average FP values [3, 8] | Average FP values ([3]; PG vesicles with DPH (10 μM))
1 | O=C(O)CNC(=S)Nc1ccc(C(F)(F)F)cc1 [SSA 2] | 105 M⁻¹ | >10.0 ^b mM | 41 ^c mN m^−1 | 1.42 | 43 | 39 |  | 0.88 | 0.85 | −1 ± 1 | −40 ± 0 | 11 ± 8
2 | Cc1ccc2nc(-c3ccc(NC(=O)NCS(=O)(=O)O)cc3)sc2c1 [SSA 3] | 3 M⁻¹ and 2.7 M⁻¹ |  |  | 1.64 | 37 | 37 |  | 0.00 | 0.00 |  |  | 
3 | O=S(=O)(O)CCCNC(=S)Nc1ccc(C(F)(F)F)cc1 [SSA 1] | 3 M⁻¹ and 2.6 M⁻¹ |  |  | 1.50 | 33 | 31 |  | 0.94 | 1.01 | 50 ± 1 | −9 ± 3 | 29 ± 1

Continued, in another order:

Row | Kdim [1] | CAC (mM) [4] | Surface tension at limit of solubility [4] | dH (nm) of SSA anion, 1H NMR DOSY [5] [nm] | Quantitative 1H NMR (%) Anion [6] [%] | Quantitative 1H NMR (%) Cation [6] [%] | CAC [4] [mM] | Structure (SMILES) | MAF (membrane adhesion factor) [2] | PF (membrane permeation factor) [2] | Average FP values [3, 7] | Average FP values [3, 8] | Average FP values ([3]; PG vesicles with DPH (10 μM))
4 | 7636 M⁻¹ | >2.8 ^b mM | 43 ^c mN m^−1 | 1.61 | 33 | 37 | < 2.78 | O=C(O)CNc1c(Nc2ccc(C(F)(F)F)cc2)c(=O)c1=O [SSA 5] | 0.38 | 0.67 | 146 ± 4 | 106 ± 7 | 152 ± 6
5 |  | >7.5 ^b mM | 42 ^c mN m^−1 | 1.65 | 44 | 39 | < 7.5 | O=c1c(NCCCS(=O)(=O)O)c(Nc2ccc(C(F)(F)F)cc2)c1=O [SSA 4] | 0.38 | 1.48 ^a | 151 ± 5 | 73 ± 14 | 150 ± 8
